Legend:
P2X purinoceptor 4 = biological target: T1, P2X purinoceptor 4 (Homo sapiens, UniProt Q99571); assay: Antagonist activity against human P2X4R stably transfected in human 1321N1 cells incubated for 30 mins by Fura-2 AM staining based calcium influx assay; type: cell-based
T1 sequence (Q99571 whole entry): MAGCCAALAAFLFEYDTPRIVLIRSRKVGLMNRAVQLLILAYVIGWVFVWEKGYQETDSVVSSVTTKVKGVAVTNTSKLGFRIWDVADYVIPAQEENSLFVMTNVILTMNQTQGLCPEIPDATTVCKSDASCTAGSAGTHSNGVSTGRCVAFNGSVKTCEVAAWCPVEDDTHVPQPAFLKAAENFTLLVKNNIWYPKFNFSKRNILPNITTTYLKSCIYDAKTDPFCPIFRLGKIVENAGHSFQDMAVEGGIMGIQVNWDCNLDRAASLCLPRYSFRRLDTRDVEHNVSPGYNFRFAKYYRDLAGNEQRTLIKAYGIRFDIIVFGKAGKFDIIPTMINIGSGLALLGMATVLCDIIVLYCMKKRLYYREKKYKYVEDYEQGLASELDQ

[1] = Cytotoxicity against human 1321N1 cells assessed as reduction in cell viability at 50 uM after 24 hrs by MTT assay relative to control; type: toxicity, cell-based; conditions: 1321n1, 24 h
[2] = biological target: T2, P2X purinoceptor 2 (Homo sapiens) (UniProt Q9UBL9); assay: Antagonist activity against human P2X2R stably transfected in human 1321N1 cells at 50 uM incubated for 30 mins by Fura-2 AM staining based calcium influx assay relative to control; type: cell-based; design: scale not given: the % may be the effect or the level left
T2 sequence (whole entry): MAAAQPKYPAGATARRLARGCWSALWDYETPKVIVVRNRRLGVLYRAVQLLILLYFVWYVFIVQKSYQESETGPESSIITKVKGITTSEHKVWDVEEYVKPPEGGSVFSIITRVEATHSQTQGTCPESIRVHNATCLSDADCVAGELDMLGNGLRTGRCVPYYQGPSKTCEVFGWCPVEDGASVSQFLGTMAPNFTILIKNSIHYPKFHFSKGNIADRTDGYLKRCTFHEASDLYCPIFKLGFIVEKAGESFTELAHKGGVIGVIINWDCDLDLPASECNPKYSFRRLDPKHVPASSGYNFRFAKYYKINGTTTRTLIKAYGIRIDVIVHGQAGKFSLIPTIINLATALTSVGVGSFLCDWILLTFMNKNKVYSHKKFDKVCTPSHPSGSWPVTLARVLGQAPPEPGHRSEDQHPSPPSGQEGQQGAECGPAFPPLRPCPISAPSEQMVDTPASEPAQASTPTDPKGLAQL

HEK293 = assay: Cytotoxicity against HEK293 cells assessed as reduction in cell viability at 50 uM after 24 hrs by MTT assay relative to control; type: toxicity, cell-based; conditions: human, hek293, 24 h
HeLa = assay: Cytotoxicity against human HeLa cells assessed as reduction in cell viability at 50 uM after 24 hrs by MTT assay relative to control; type: toxicity, cell-based
P2X purinoceptor 5 [3] = biological target: T3, P2X purinoceptor 5 (Homo sapiens, UniProt Q93086); assay: Antagonist activity against human P2X5R stably transfected in human 1321N1 cells at 50 uM incubated for 30 mins by Fura-2 AM staining based calcium influx assay relative to control; type: cell-based; design: scale not given: the % may be the effect or the level left
T3 sequence (Q93086 whole entry): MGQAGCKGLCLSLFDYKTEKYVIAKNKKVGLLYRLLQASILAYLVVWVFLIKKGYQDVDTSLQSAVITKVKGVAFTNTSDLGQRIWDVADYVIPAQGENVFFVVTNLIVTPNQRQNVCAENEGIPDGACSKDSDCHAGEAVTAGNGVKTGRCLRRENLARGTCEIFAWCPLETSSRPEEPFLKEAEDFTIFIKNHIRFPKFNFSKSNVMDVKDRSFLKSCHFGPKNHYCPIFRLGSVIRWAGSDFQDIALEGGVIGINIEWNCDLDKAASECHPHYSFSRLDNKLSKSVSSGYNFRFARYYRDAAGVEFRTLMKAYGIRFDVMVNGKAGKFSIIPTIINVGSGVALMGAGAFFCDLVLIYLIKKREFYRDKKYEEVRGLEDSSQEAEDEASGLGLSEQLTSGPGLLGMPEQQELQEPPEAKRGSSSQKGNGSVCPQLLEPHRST

[4] = biological target: T4, P2X purinoceptor 7 (Homo sapiens) (UniProt Q99572); assay: Antagonist activity against human P2X7R stably transfected in human 1321N1 cells at 50 uM incubated for 30 mins by Fura-2 AM staining based calcium influx assay relative to control; type: cell-based; design: scale not given: the % may be the effect or the level left
T4 sequence (whole entry): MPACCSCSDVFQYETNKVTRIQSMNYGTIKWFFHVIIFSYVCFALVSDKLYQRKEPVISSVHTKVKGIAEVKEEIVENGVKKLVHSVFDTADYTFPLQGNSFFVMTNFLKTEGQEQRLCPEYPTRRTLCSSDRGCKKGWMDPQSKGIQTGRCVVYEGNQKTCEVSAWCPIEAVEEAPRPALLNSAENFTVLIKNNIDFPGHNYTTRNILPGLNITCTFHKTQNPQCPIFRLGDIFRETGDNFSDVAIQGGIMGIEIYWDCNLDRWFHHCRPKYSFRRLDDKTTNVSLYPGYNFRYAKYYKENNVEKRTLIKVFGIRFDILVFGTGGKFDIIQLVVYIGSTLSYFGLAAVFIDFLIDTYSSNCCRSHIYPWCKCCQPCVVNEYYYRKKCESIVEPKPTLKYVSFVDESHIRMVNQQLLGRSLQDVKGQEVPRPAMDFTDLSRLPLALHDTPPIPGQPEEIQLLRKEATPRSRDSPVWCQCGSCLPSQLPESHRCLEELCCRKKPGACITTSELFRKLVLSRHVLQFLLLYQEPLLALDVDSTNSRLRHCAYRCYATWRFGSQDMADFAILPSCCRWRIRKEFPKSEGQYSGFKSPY

[5] = biological target: T5, P2X purinoceptor 4 (Homo sapiens) (UniProt Q99571); assay: Antagonist activity against human P2X4R stably transfected in human 1321N1 cells at 50 uM incubated for 30 mins by Fura-2 AM staining based calcium influx assay relative to control; type: cell-based; design: scale not given: the % may be the effect or the level left
T5 sequence (whole entry): T1 sequence (Q99571 whole entry)

[6] = biological target: T5, P2X purinoceptor 4 (Homo sapiens); assay: Antagonist activity against human P2X4R stably transfected in human 1321N1 cells assessed as ATP Emax at 0.1 uM incubated for 30 mins by Fura-2 AM staining based calcium influx assay relative to control; type: cell-based; conditions: filed as antagonist
[7] = biological target: T5, P2X purinoceptor 4 (Homo sapiens); assay: Antagonist activity against human P2X4R stably transfected in human 1321N1 cells assessed as ATP Emax at 0.2 uM incubated for 30 mins by Fura-2 AM staining based calcium influx assay relative to control; type: cell-based; conditions: filed as antagonist
P2X purinoceptor 7 [8] = biological target: T6, P2X purinoceptor 7 (Homo sapiens, UniProt Q99572); assay: Antagonist activity against human P2X7R stably transfected in human 1321N1 cells incubated for 30 mins by Fura-2 AM staining based calcium influx assay; type: cell-based
T6 sequence (Q99572 whole entry): T4 sequence (whole entry)

[9] = biological target: T5, P2X purinoceptor 4 (Homo sapiens); assay: Antagonist activity against human P2X4R stably transfected in human 1321N1 cells assessed as ATP Emax at 0.05 uM incubated for 30 mins by Fura-2 AM staining based calcium influx assay relative to control; type: cell-based; conditions: filed as antagonist
P2X purinoceptor 7 [10] = biological target: T6, P2X purinoceptor 7; assay: Antagonist activity against human P2X7R stably transfected in human 1321N1 cells assessed as reduction in BzATP-induced activity incubated for 5 to 10 mins by EtBr staining based fluorescence assay; type: cell-based
P2X purinoceptor 5 [11] = biological target: T3, P2X purinoceptor 5; assay: Antagonist activity against human P2X5R stably transfected in human 1321N1 cells incubated for 30 mins by Fura-2 AM staining based calcium influx assay; type: cell-based
P2X purinoceptor 2 = biological target: T7, P2X purinoceptor 2 (Homo sapiens, UniProt Q9UBL9); assay: Antagonist activity against human P2X2R stably transfected in human 1321N1 cells incubated for 30 mins by Fura-2 AM staining based calcium influx assay; type: cell-based
T7 sequence (Q9UBL9 whole entry): T2 sequence (whole entry)

[12] = biological target: T4, P2X purinoceptor 7 (Homo sapiens); assay: Antagonist activity against human P2X7R stably transfected in human 1321N1 cells assessed as BzATP Emax at 0.2 uM incubated for 30 mins by Fura-2 AM staining based calcium influx assay relative to control; type: cell-based
[13] = biological target: T4, P2X purinoceptor 7 (Homo sapiens); assay: Antagonist activity against human P2X7R stably transfected in human 1321N1 cells assessed as BzATP Emax at 0.1 uM incubated for 30 mins by Fura-2 AM staining based calcium influx assay relative to control; type: cell-based; conditions: filed as antagonist
[14] = biological target: T4, P2X purinoceptor 7 (Homo sapiens); assay: Antagonist activity against human P2X7R stably transfected in human 1321N1 cells assessed as BzATP Emax at 0.05 uM incubated for 30 mins by Fura-2 AM staining based calcium influx assay relative to control; type: cell-based; conditions: filed as antagonist

| SMILES | IC50 (P2X purinoceptor 4) [nM] | Activity [1] [%] | Activity [2] [%] | Activity (HEK293) [%] | Activity (HeLa) [%] | Activity (P2X purinoceptor 5 [3]) [%] | IC50 (P2X purinoceptor 7 [8]) [nM] | also measured |
| --- | --- | --- | --- | --- | --- | --- | --- | --- |
| O=C(NC(=S)Nc1ccccc1O)c1ccc2c(c1)OCO2 | 2160 |  |  |  |  |  |  |  |
| O=C(NC(=S)Nc1ccc(Br)cc1)c1ccc2c(c1)OCO2 | 14300 | 3.72 | 35 | 2.64 | 7.64 | 38 |  | Activity [4]: 22%; Activity [5]: 31% |
| COc1ccc(NC(=S)NC(=O)c2ccc3c(c2)OCO3)cc1 |  | 3.32 | 22 | 7.44 | 1.38 | 12 |  | Activity [4]: 36%; Activity ([5]; filed as antagonist): 44% |
| O=C(NC(=S)Nc1c(Br)ccc(C(F)(F)F)c1Br)c1ccc2c(c1)OCO2 | 55 | 7.19 | 38 | 7.24 | 5.35 |  | 3560 | Emax [6]: 68%; Emax [7]: 40%; Emax [9]: 90% |
| O=C(NC(=S)Nc1cc(Cl)c(O)c(Cl)c1)c1ccc2c(c1)OCO2 | 7640 |  |  |  |  |  | 1640 |  |
| Cc1cc(Br)ccc1NC(=S)NC(=O)c1ccc2c(c1)OCO2 | 14300 | 7.09 | 18 | 3.38 | 1.64 | 25 |  | Activity [4]: 34% |
| Cc1nc(/N=N/c2ccc(S(=O)(=O)O)cc2S(=O)(=O)O)c(COP(=O)(O)O)c(C=O)c1O |  | 12.41 |  | 46.58 | 20.43 |  |  |  |
| COc1cccc(NC(=S)NC(=O)c2ccc3c(c2)OCO3)c1 |  | 4.15 | 22 | 1.95 | 4.18 | 25 |  | Activity [4]: 33%; Activity [5]: 19% |
| COc1ccccc1NC(=S)NC(=O)c1ccc2c(c1)OCO2 | 3670 | 5.41 | 39 | 4.6 | 1.7 | 26 |  | Activity [4]: 38% |
| O=C(NC(=S)Nc1cc(Br)cc(C(F)(F)F)c1)c1ccc2c(c1)OCO2 | 18200 | 3.34 | 22 | 4.48 | 5.59 | 17 | 1250 |  |
| NS(=O)(=O)c1ccc(CCNC(=S)NC(=O)c2ccc3c(c2)OCO3)cc1 | 1050 | 5.81 | 33 | 5.77 | 4.26 | 32 | 45 | IC50 (P2X purinoceptor 7 [10]): 47 nM |
| O=C(NC(=S)Nc1ccc(O)cc1)c1ccc2c(c1)OCO2 | 1450 |  |  |  |  |  | 902 | IC50 (P2X purinoceptor 5 [11]): 27.6 µM; IC50 (P2X purinoceptor 7 [10]): 1110 nM |
| NS(=O)(=O)c1cccc(NC(=S)NC(=O)c2ccc3c(c2)OCO3)c1 | 2170 | 6.41 | 17 | 4.19 | 2.52 | 23 | 110 | IC50 (P2X purinoceptor 7 [10]): 173 nM |
| CC(C)c1cc(Br)c(NC(=O)Nc2cccnc2)c(Br)c1 |  | 16.7 |  | 25.19 | 14.81 |  |  | Activity ([4]; filed as antagonist): 45% |
| Cc1ccc(C(=O)Nc2ccc(S(=O)(=O)O)c3cc(S(=O)(=O)O)cc(S(=O)(=O)O)c23)cc1NC(=O)c1cccc(NC(=O)Nc2cccc(C(=O)Nc3cc(C(=O)Nc4ccc(S(=O)(=O)O)c5cc(S(=O)(=O)O)cc(S(=O)(=O)O)c45)ccc3C)c2)c1 [SURAMIN] | 4730 | 11.56 |  | 49.01 | 11.46 |  |  | IC50 (P2X purinoceptor 2): 14 µM; IC50 (P2X purinoceptor 5 [11]): 15.8 µM |
| O=C(NC(=S)Nc1ccc([N+](=O)[O-])cc1)c1ccc2c(c1)OCO2 | 3760 |  |  |  |  |  | 1890 | IC50 (P2X purinoceptor 5 [11]): 1.65 µM |
| O=C(NC(=S)Nc1cccc2cccnc12)c1ccc2c(c1)OCO2 | 908 | 3.04 |  | 1.42 | 5.45 | 29 | 18 | Emax [12]: 29%; Activity ([2]; filed as antagonist): 41%; Emax [13]: 68%; IC50 (P2X purinoceptor 7 [10]): 30 nM; Emax [14]: 83% |
| CC(C)c1ccc(NC(=S)NC(=O)c2ccc3c(c2)OCO3)c(Br)c1 | 39 | 3.83 | 35 | 3.73 | 4.53 | 27 | 13100 |  |
| O=C(O)c1ccc2c(c1)OCO2 |  |  | 21 |  |  | 10 |  | Activity [5]: 29% |
| O=C(NC(=S)Nc1cccnc1Cl)c1ccc2c(c1)OCO2 | 935 | 2.82 |  | 6.15 | 1.94 |  | 34 | IC50 (P2X purinoceptor 2): 35.9 µM; IC50 (P2X purinoceptor 7 [10]): 34 nM |

Source: ChEMBL document CHEMBL5137039, “Therapeutic potentials and structure-activity relationship of 1,3-benzodioxole N-carbamothioyl carboxamide derivatives as selective and potent antagonists of P2X4 and P2X7 receptors” (Eur J Med Chem, 2022)
